Experimental data reported in patent publication US20060229264A1, “Crystalline 6-n-pyridylmethylaminoindolocarbazole compounds” (priority 2003, published 2006).

What was measured:
Assay type in all cases: physicochemical
[1] = Solid light stability test (25° C., 2000 lux light source, tight-closed vials); conditions: after 4 weeks
Method: A solid light stability test of amorphous free bases and crystals of the compounds represented by the formula (II), the formula (III) and the formula (IV) is shown in Table 2. This test was carried out at 25° C. under the light source of 2000 luxes in tight-closed vials.

[2] = Solid thermostability test (accelerated test at 80° C. in tightly closed vials); conditions: after 4 weeks
Method: A solid thermostability test of amorphous free bases and crystals of the compounds represented by the formula (II), the formula (III) and the formula (IV) is shown in Table 1. This test is an accelerated test conducted at 80° C. in tightly closed vials.

[3] = Test on solubility in water
From the text: Solubilities of crystals of intramolecular salts of the compounds of the formulae (II), (III) and (IV) and the corresponding amorphous free bases in water are shown below.

[4] = Hygroscopicity test (moisture sorption analyzer); conditions: for Changes in weight under dehumidifying condition (desorption) compared with humidifying condition: desorption versus adsorption of water, FIG. 3 / FIG. 4; for Weight change rate upon humidification: relative humidity changed from 30% to 75% (adsorption process of water)
From the text: Comparing the hygroscopicity of amorphous free base of the compound represented by the above formula (II) with that of crystals of hydrochloride of the same compound, the weight of the amorphous free base increased by 7.6% under the moisturized condition (adsorption process of water), while the weight of the crystal increased as slightly as 1.5% in the case where the comparison was done changing the humidity from 30% to 75% which is the humidity for usual preservation. Thus, the weight change rate of the amorphous free base of the compound represented by the formula (II) upon humidification (relative humidity changes from 30% to 75%) was 7.6%. On the other hand, the weight change rate of the crystals of hydrochloride of the compound represented by the formula (II) upon humidification (relative humidity changes from 30% to 75%) was 1.5%, therefore, the influence by humidification was very little.
Hygroscopicity test was conducted by IGAsorp Moisture Sorption Analyzer, manufacture by Hiden Analytical Limited (refer to FIG. 3).

Structure (SMILES)	Residual Rate (light stability of solid) [1]	Residual Rate (thermostability of solid) [2]	solubility [3]	Changes in weight under dehumidifying condition (desorption) compared with humidifying condition [4]	Weight change rate upon humidification [4]	Solubility in water ([3]; listed as Amorphous free base of the compound represented by the formula (II))
O=C1c2c(c3c4ccc(O)cc4n(C4OC(CO)C(O)C(O)C4O)c3c3[nH]c4cc(O)ccc4c23)C(=O)N1NCc1cccc(CO)n1 (centres unmarked)	78.9%	66.6%	≤ 1 µg/mL			
O=C1c2c(c3c4ccc(O)cc4n(C4OC(CO)C(O)C(O)C4O)c3c3[nH]c4cc(O)ccc4c23)C(=O)N1NCc1ccncc1 (centres unmarked)			≤ 1 µg/mL			
Cl.O=C1c2c(c3c4ccc(O)cc4n(C4OC(CO)C(O)C(O)C4O)c3c3[nH]c4cc(O)ccc4c23)C(=O)N1NCc1ccncc1CO (centres unmarked)	94.3%		10000 to 50000 µg/mL	nearly the same	1.5%	
Cl.O=C1c2c(c3c4ccc(O)cc4n(C4OC(CO)C(O)C(O)C4O)c3c3[nH]c4cc(O)ccc4c23)C(=O)N1NCc1ccncc1 (centres unmarked)	95.8%	98.4%	10000 to 50000 µg/mL	nearly the same	0.6%	
O=C1c2c(c3c4ccc(O)cc4n(C4OC(CO)C(O)C(O)C4O)c3c3[nH]c4cc(O)ccc4c23)C(=O)N1NCc1ccncc1CO (centres unmarked) [Amorphous free base of the compound of the formula (II)]	89.5%	87.8%		greatly different	7.6%	not more than 0.001 mg/mL
O=C1c2c(c3c4ccc(O)cc4n(C4OC(CO)C(O)C(O)C4O)c3c3[nH]c4cc(O)ccc4c23)C(=O)N1NCc1ccncc1 (centres unmarked) [Amorphous free base of the compound of the formula (IV)]	84.6%	82.9%		significantly different	2.8%	
O=C1c2c(c3c4ccc(O)cc4n(C4OC(CO)C(O)C(O)C4O)c3c3[nH]c4cc(O)ccc4c23)C(=O)N1NCc1ccncc1CO (centres unmarked) [Crystals of free base of the compound of the formula (II)]	95.6%					
O=C1c2c(c3c4ccc(O)cc4n(C4OC(CO)C(O)C(O)C4O)c3c3[nH]c4cc(O)ccc4c23)C(=O)N1NCc1ccncc1 (centres unmarked) [Crystals of free base of the compound of the formula (IV)]	99.5%	99.7%				
O=C1c2c(c3c4ccc(O)cc4n(C4OC(CO)C(O)C(O)C4O)c3c3[nH]c4cc(O)ccc4c23)C(=O)N1NCc1ccncc1CO (centres unmarked) [Crystals of methanesulfonate of the compound of the formula ]		99.1%				
